From US6780872B2, “Tricyclic dihydropyrazolone and tricyclic dihydroisoxazolone potassium channel openers” (Abbott Laboratories, priority 2000, dated 2004)

System: guinea-pig urinary bladder (GPB) cells
Experiment: Membrane hyperpolarization (MHP) assay, DiBAC(4)3 dye, FLIPR
Assay type: cell-based
Settings: Cavia porcellus; for Emax: maximal steady-state hyperpolarization in GPB cells, normalized to response with 10 μM P1075 (=100%); for EC50: membrane hyperpolarization in GPB cells, concentration eliciting 50% of the maximal response of the test sample
Method: Compounds were evaluated for potassium channel opening activity using primary cultured guinea-pig urinary bladder (GPB) cells.
For the preparation of urinary bladder smooth muscle cells, urinary bladders were removed from male guinea-pigs (Hartley, Charles River, Wilmington, Mass.) weighing 300-400 g and placed in ice-cold Ca^2+-free Krebs solution (Composition, mM: KCl, 2.7; KH2PO4, 1.5; NaCl, 75; Na2HPO4, 9.6; Na2HPO4.7H2O, 8; MgSO4, 2; glucose, 5; HEPES, 10; pH 7.4). Cells were isolated by enzymatic dissociation as previously described with minor modifications in (Klockner, U. and Isenberg, G., Pflugers Arch. 1985, 405, 329-339), hereby incorporated by reference. The bladder was cut into small sections and incubated in 5 mL of the Kreb's solution containing 1 mg/mL collagenase (Sigma, St. Louis, Mo.) and 0.2 mg/mL pronase (Calbiochem, La Jolla, Calif.) with continuous stirring in a cell incubator for 30 minutes. The mixture was then centrifuged at 1300×g for 5 minutes, and the pellet resuspended in Dulbecco's PBS (GIBCO, Gaithersburg, Md.) and recentrifuged to remove residual enzyme. The cell pellet was resuspended in 5 mL growth media (composition: Dulbecco's modified Eagle's medium supplemented with 10% fetal bovine serum, 100 units/mL penicillin, 100 units/mL streptomycin and […] amphotericin B) and further dissociated by pipetting the suspension through a flame-polished Pasteur pipette and passing it through a polypropylene mesh membrane (Spectrum, Houston, Tex.). The cell density was adjusted to 100,000 cells/mL by resuspension in growth media. Cells were plated in clear-bottomed black 96-well plates (Packard) for membrane potential studies at a density of 20,000 cells/well and maintained in a cell incubator with 90% air: 10% CO2 until confluent. Cells were confirmed to be of smooth muscle type by cytoskeletal staining using a monoclonal mouse anti human-α-smooth muscle actin (Biomeda, Foster City, Calif.).
Functional activity at potassium channels was measured by evaluating changes in membrane potential using the bis-oxonol dye DiBAC(4)3 (Molecular Probes) in a 96-well cell-based kinetic assay system, Fluorescent Imaging Plate Reader (FLIPR) (K. S. Schroeder et al., J. Biomed. Screen., v. 1 pp. 7581 (1996)), hereby incorporated by reference. DiBAC(4) is an anionic potentiometric probe which partitions between cells and extracellular solution in a membrane potential-dependent manner. With increasing membrane potential (for example, K^+ depolarization), the probe further partitions into the cell; this is measured as an increase in fluorescence due to dye interaction with intracellular lipids and proteins. Conversely, decreasing membrane potential (hyperpolarization by potassium channel openers) evokes a decrease in fluorescence.
Confluent guinea-pig urinary bladder cells cultured in black clear-bottomed 96-well plates were rinsed twice with […] assay buffer (composition, mM: HEPES, 20; NaCl, 120; KCl, 2; CaCl2, 2; MgCl2, 1; glucose, 5; pH 7.4 at 25° C.) containing 5 μM DiBAC(4) and incubated with […] of the buffer in a cell incubator for 30 minutes at 37° C. to ensure dye distribution across the membrane. After recording the baseline fluorescence for 5 minutes, the reference or test compounds, prepared at 10 times the concentration in the assay buffer, were added directly to the wells. Changes in fluorescence were monitored for an additional 25 minutes. Hyperpolarization responses were corrected for any background noise and were normalized to the response observed with 10 μM of the reference compound P1075, N″-cyano-N-(tert-pentyl)-N′-(3-pyridinyl)guanidine, which was assigned as 100%. P1075 is a potent opener of smooth muscle KATP channels (Quast et al., Mol. Pharmacol., v. 43 pp. 474-481 (1993)) and was prepared using the procedures described in (Manley, J. Med. Chem. (1992) 35, 2327-2340), hereby incorporated by reference. […]

| EC50 [nM] | SMILES | Emax [%] |
| --- | --- | --- |
| 50 | Cn1[nH]c(=O)c2c1NC1=C(C(=O)COC1)C2c1ccc(F)c(Br)c1 (stereo not drawn) [Example 26, 4-(3-bromo-4-fluorophenyl)-1-methyl-1,2,4,9-tetrahydropyrano[3,4-b]pyrazolo[4,3-e]pyridine-3,5(6H,8H)-dione] | 99 |
| 760 | Cn1[nH]c(=O)c2c1NC1=C(C(=O)OCC1)C2c1ccc(F)c(Br)c1 (stereo not drawn) [Example 31, 4-(3-bromo-4-fluorophenyl)-1-methyl-1,2,4,7,8,9-hexahydropyrano[4,3-b]pyrazolo[4,3-e]pyridine-3,5-dione] | 96 |
| 520 | Cn1[nH]c(=O)c2c1NC1=C(C(=O)OC1)C2c1ccc(F)c(Br)c1 (stereo not drawn) [Example 32, 4-(3-bromo-4-fluorophenyl)-1-methyl-4,8-dihydro-1H-furo[3,4-b]pyrazolo[4,3-e]pyridine-3,5(2H,7H)-dione] | 73 |
